US9732367B2, “Cell lines” (MEDIMMUNE LIMITED, priority 2012, dated 2017)
Where “and” joins values, the source holds several entries; their conditions need not be identical. Equal values may be shown once.

Legend:
pylRS/tRNA pair = biological target: T1, pylRS/tRNA pair (Methanosarcina mazei, UniProt Q8PWY1); assay: GFP assay: translational testing of pyrrolysine analogs as nnAAs; type: cell-based; conditions: Formula V analogs, nnAA 2 mM, 2-3 days; for MFI: geometric mean
T1 construct: expressed in transfected cells; host or cells: HEK293 clone 3H7
Source text: An in vitro cell based assay was developed to assess the compatibility of the pylRS/tRNA pair and the pyrrolysine analogs of the present invention (nnAAs) by and the efficiency of nnAAs integration into a target protein. For this, HEK293 cells stably expressing pylRS (3H7) were transiently transfected with plasmids for the expression of tRNApyl and a reporter construct encoding GFPY40 (containing amber codon in place of tyrosine at amino acid residue number 40 (where 1 is the initiator methionine)) using standard transfection protocols. Transfected cells were incubated with nnAAs at 2 mM for 2-3 days GFP production was analyzed qualitatively by visual inspection under the microscope. The GFP fluorescence was quantified by flow cytometry using an Accuri flow cytometer and the geometric mean of the fluorescent cells determined.
This cell based assay was used to determine whether the different nnAAs were suitable substrates for the pylRS and allowed its translation into a target protein. Cells expressing the PylRS/tRNApyl pair and containing a vector encoding the GFPY40 reporter gene were incubated in the presence of the nnAAs. nnAAs that are readily utilized by the PylRS/tRNApyl pair support the translation of the nnAA into the amber site of GFP and allow read-through of the gene producing full length GFP (fluorescent protein). The fluorescence intensity of the cells depends on the efficiency of nnAA incorporation. Thus, nnAAs that are poorly utilized produce weakly fluorescent or non-fluorescing cells. […] Furthermore, the relative expression levels in each sample was compared to those generated by substrates known to be efficiently utilized by pylRS.

HEK293 c18 cells = assay: MTS viability assay with nnAA titration in cells transfected with pylRS and tRNA; conditions: ALOC 5 mM to 0.08 mM, 5 days
Procedure: Finally, to determine whether amber suppression led to cytostatic effects, 1000 HEK293 c18 cells plates in a 96 well plate and transiently transfected with pCEP4-pylRS and pOriP-9×tRNA constructs. Cells were grown in DMEM-C medium containing a titration of nnAA (ALOC) starting with 5 mM to 0.08 mM. Cell viability was assayed at the time of the transfection, and after 5 days growth using an MTS colorimetric assays (FIG. 4D).

pylRS = biological target: T2, pylRS (Methanosarcina mazei, UniProt Q8PWY1); assay: In vitro GFPY40 functional assay: dnnAA competition with lys azide in HEK293 cells stably expressing pylRS; type: cell-based; conditions: lys azide with 0.5 mM, 1 mM and 2 mM dnnAA
T2 construct: expressed in transfected cells
Source text: Effective dnnAAs were identified by their ability to compete with a high affinity substrate for pylRS (lys-azide) in an in vitro assay, for their ability to reduce background amber suppression levels observed with a reporter protein, and for their ability to improve the viability and function of cells previously selected for high pylRS/tRNA activity.
To identify analogues that could effectively compete for pylRS binding with lys-azide, dnnAAs were first tested for function in an in vitro functional assay based on the ability of cells expressing WT pylRS and tRNApyl to introduce a nnAA at a target site in the reporter protein GFPY40. This reporter contains an amber codon in its open reading frame that, in the absence of amber suppression, generates a truncated protein that is not fluorescent. In the event of amber suppression, a full length GFP protein is generated that is detectable by fluorescence detection methods. In this assay, HEK293 cells stably expressing pylRS, were transiently transfected with a tRNA expression construct and the GFPY40 reporter cassette. Cells were then incubated with 0.5 mM lys azide in the presence or absence of different concentrations of dnnAA ranging from 0.5 mM to 2 mM. GFP fluorescence levels were then quantified by flow cytometry. For this assay the proportion of fluorescent cells in each condition was determined and plotted. As the dnnAAs are expected to compete with the nnAA (lys-azide) for pylRS/tRNA binding, an effective dnnAA should reduce or prevent the expression of full length GFP (as described above dnnAAs can be delivered by the tRNA to the amber site, but cannot propagate protein synthesis).
A similar in vitro assay was used to gauge the effectiveness of the dnnAAs of Formula VIIB listed in Table 1 where a description of the amino acids tested and a summary of the results are shown For this assay the geometric mean fluorescence intensity of each sample was determined by flow cytometry and plotted. For each dnnAA tested control cells transfected with wild type GFP were measured as a positive control. In addition cells transfected with the reporter GFPY40 and exposed to 0.5 mM lys azide or 2 mM lys azide were used to determine maximal GFP expression levels in the absence of an inhibitor. In each case robust GFP expression levels were observed. To test whether any of the dnnAA could reduce the efficacy of GFP expression, cells were incubated in the presence of 0.5 mM, 1 mM and 2 mM […]. […] Thus, dnnAAs of the present invention can compete with the lys-azide nnAA for binding to the pylRS and interfere with the physiological mechanism of nnAA introduction. Cells transfected with the pylRS/tRNA pair and the GFPY40 reporter construct but not exposed to either lys-azide or a dnnAA were used to determine levels of background amber suppression and used as a negative control. In each case low GFP expression levels were observed.

platform cell line [1] = assay: Platform cell line grown with or without dnnAA: cell numbers; type: cell-based
Procedure: (§1) To do this a platform cell line, selected for high activity of the amber suppression machinery was grown in the presence or absence of dnnAA for several passages and subsequently seeded into 96-well plates at ten cells per well and grown in the presence or absence of dnnAA (Formula VIIB.2). Each plate was incubated for several days and cells harvested, pooled and counted. […] This two fold increase in cell numbers may be due to the protective effects of the dnnAA. To examine the activity of the cells grown under these conditions, 0.5×10^6 cells pooled from each plate were seeded into a 6-well plate and transfected with a GFPY40 reporter construct in the absence of dnnAA and with lys-azide. After 24 hours the fluorescence intensity of the cells in each sample was analysed by flow cytometry. The data were gated to include single cells and plotted to display the intensity of each event (scatter plot, FIG. 16). The number of events falling within the top 10% of the GFP intensity spectrum were determined for each sample (Table 2). […] Cells from both groups were also transfected with a construct encoding wild type GFP. The same analyses were performed on this group.

platform cell line [2] = assay: GFPY40 reporter activity of platform cells grown with or without dnnAA (flow cytometry); type: cell-based
Procedure: as §1

[3] = test system: background amber suppression; assay: Background amber suppression (GFPY40 reporter, pylRS/tRNApyl, dnnAA without nnAA); type: cell-based
Procedure: The competitive assay for dnnAA inhibition in the presence of a high affinity substrate identified dnnAAs that compete for binding with to the pylRS and thus are specific inhibitors of the pylRS/tRNA. However, the decoy nnAA is intended to reduce the levels of background amber suppression in the absence of nnAA. To determine if background amber suppression levels could be reduced, we incubated cells containing the GFPY40 reporter construct and the pylRS/tRNApyl pair in medium containing one of the dnnAAs. To do this, HEK293 cells stably expressing pylRS were transiently transfected with a tRNA expression construct and the GFPY40 reporter cassette. After 3 days of incubation, cells were assayed for expression of GFP by flow cytometry and geometric mean fluorescence intensity of the samples determined. We have previously observed that cells containing the full complement of the pylRS/tRNA amber suppression system show detectable expression of the GFP reporter construct that is above what is observed in cells lacking the amber suppression system. […] To identify dnnAAs capable of reducing background amber suppression levels the transfected cells were incubated with each of the dnnAAs at 0.5 mM, 1 mM and 2 mM and GFP levels measured by flow cytometry.
The decrease in background amber suppression dependent GFP expression was dose dependent and improved as the dnnAA concentration increased. […] This feature is an attractive characteristic for platform development as it enables the repression of background amber suppression but the system can be activated upon addition of a strong pylRS substrate such as lys-azide. […] Their efficacy was quantified by the reduction in GFP expression relative to a control sample (not exposed to dnnAA) and the data are summarized in Table 1.

[4] = test system: CHO cells stably expressing pylRS and tRNApyl and an IgG directed against her2/neu containing an amber codon; assay: Growth and viability of pylRS/tRNApyl cell line treated with lys azide and dnnAA; type: cell-based; conditions: 2 mM dnnAA with 0.5 mM lys-azide
Source text: To examine whether the dnnAAs of the invention could function to improve the viability of cells containing pylRS and tRNApyl we monitored the growth and viability of a cell line, stably expressing pylRS and tRNApyl. For this assay CHO cells stably expressing pylRS and tRNApyl and an IgG directed against her2/neu containing an amber codon in the heavy chain, shown to effectively incorporate nnAA into the expressed IgG thus producing an antibody containing a nnAA, were used for this experiment. Despite a high expression level of pylRS/tRNApyl pair, this cell line has very robust cell growth characteristics when grown in medium lacking nnAA. The presence of a highly expressed target containing an amber codon likely has a protective effect on the cells by supplying them with high levels of amber codons that absorb the amber suppression activity and protects the cells from the effects of background amber suppression at essential genes. However, upon addition of the nnAA (lys-azide) to the growth medium, and activation of the amber suppression machinery, a decrease in cell growth rate is observed. […] To determine whether a dnnAA can rescue this effect, cells cultured in serum free medium were grown to a cell density of 0.5×10^6 cells/mL and subsequently treated with 0.5 mM lys azide alone or in combination with 2 Mm dnnAA. Cell viability and cell numbers were monitored daily over seven days. Cells treated with lys azide alone reached a cell density just below 1×10^6 cells/mL on day 3 after nnAA addition and remained at this density for the remainder of the assay (seven days) (FIG. 15A) The lack of growth was not likely due to loss of viability as the culture retained high viability throughout the experiment (˜70% viable cells) (FIG. 15B) Cultures treated with 2 mM Compound of formula VIIB.4, or 2 mM Formula VIIB.1 in combination with 0.5 mM lys-azide supported continued growth of the culture that reached over 1.5×10^6 cells/mL and retained a cell viability of 90%.

db/db mice = assay: Fed glucose blood levels in db/db mice; type: in vivo, mouse; conditions: 0.25 mg/Kg daily subcutaneously, day 3
Procedure: To assess the potency of the PEGylated FGF21 constructs obese, db/db mice were treated daily with 0.25 mg/Kg FGF21 or 20K PEG-FGF21 and glucose levels measured in fed mice after three treatments using a handheld glucose monitor, (FIG. 7B).
The homozygous db/db mouse (B6.BKS(D)-Leprdb/j, Jackson labs) is a well characterized animal model for diabetes and becomes obese after 3-4 weeks of age. The animals also display elevated plasma insulin, blood sugar, and delayed wound healing. In this study, 7-8 week old, male db/db mice were fed Lab Diet 5053 Rodent Diet 20 ad libitum. Mice were acclimatized for seven days and subsequently administered PEGylated FGF21, unmodified FGF21 and vehicle (PBS) subcutaneously daily for […].
Each mouse was administered 0.25 mg/Kg of PEG-FGF21 or unmodified FGF21 daily for three days. Fed glucose blood levels were determined by tail clip bleeding one hour after compound administration on day 3, and glucose levels measured by a handheld glucose meter (Bayer).

[5] = Tracer (wild type GFP) transfected, sample 6

T1 sequence (Q8PWY1 whole entry): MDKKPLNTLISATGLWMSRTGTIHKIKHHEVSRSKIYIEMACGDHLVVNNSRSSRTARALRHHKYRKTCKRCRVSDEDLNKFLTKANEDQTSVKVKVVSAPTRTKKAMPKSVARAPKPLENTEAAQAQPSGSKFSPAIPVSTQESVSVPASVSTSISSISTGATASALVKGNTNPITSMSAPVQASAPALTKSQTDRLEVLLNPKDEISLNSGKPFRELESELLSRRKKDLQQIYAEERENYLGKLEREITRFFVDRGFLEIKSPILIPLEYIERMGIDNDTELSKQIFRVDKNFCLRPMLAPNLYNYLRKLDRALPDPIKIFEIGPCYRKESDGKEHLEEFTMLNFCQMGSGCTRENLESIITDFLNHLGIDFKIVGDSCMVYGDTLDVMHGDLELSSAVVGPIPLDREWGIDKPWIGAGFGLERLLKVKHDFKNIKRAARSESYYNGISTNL
T2 sequence (Q8PWY1 whole entry): as above

## C=CCOC(=O)NCCCC[C@H](N)C(=O)O [Formula V.3, (2S)-2-amino-6-{[(prop-2-en-1-yloxy)carbonyl]amino}hexanoic acid]
pylRS/tRNA pair
  Positive GFP: Yes
  MFI: 2,250,000
pylRS/tRNA pair; listed as V.3
  MFI: 2250000
HEK293 c18 cells
  effect on cell viability/growth: cytotstatic effect

## C=CCOC(=O)NCCCCC(=O)O [Formula VIIB.2, 5-{[(prop-2-en-1-yloxy)carbonyl]amino}pentanoic acid]
pylRS
  reduction of GFP expression relative to samples lacking dnnAA (geometric mean fluorescence intensity): relative reduction in GFP expression was much lower
Platform cell line [1]
  increase in cell numbers vs cultures without dnnAA: two fold
Platform cell line [1]; 96-well plates, ten cells per well, grown in dnnAA
  cell numbers: 3.0 ×10^6 cells/mL and 3.7 ×10^6 cells/mL
Platform cell line [2]; GFPY40 reporter with lys-azide, 24 hours, cells previously grown with decoy
  Top 300 (GM): 1142 and 1149 and 1135
Platform cell line [2]; GFPY40 reporter, top 10% of GFP intensity, cells previously grown with decoy
  # events in top gate: 175 and 179 and 171
Platform cell line [2]; [5]
  # events in top gate: 59
  Top 300 (GM): 529
[3]; dnnAA at 0.5 mM, 1 mM and 2 mM
  reduction in background amber suppression levels: reduction in the background amber suppression levels
[3]; reduction in GFP expression relative to control not exposed to dnnAA, 3 days
  % Reduction at 2 mM Decoy: 57.7%
[4]
  prevention of cytostatic effects of amber suppression activation: prevent the cytostatic effects
[4]; seven days
  cell density: over 3 ×10^6 cells/mL
  cell viability: over 90%

B1: PEG-FGF21 (conjugate, UniProt Q9NSA1 29-209, looked up)
Fibroblast growth factor 21: HPIPDSSPLLQFGGQVRQRYLYTDDAQQTEAHLEIREDGTVGGAADQSPESLLQLKALKPGVIQILGVKTSRFLCQRPDGALYGSLHFDPEACSFRELLLEDGYNVYQSEAHGLPLHLPGNKSPHRDPAPRGPARFLPLPGLPPALPEPPGILAPQPPDVGSSDPLSMVGPSQGRSPSYAS
modifications: PEGylated
db/db mice
  glucose level maintenance vs placebo: improved glucose level maintenance as compared to placebo controls
  potency on fed glucose blood levels: same potency of wild type FGF21
